Source: US20260199297A1, “FERROPTOSIS INDUCERS TO TREAT CANCER” (The University of Toledo, priority 2022, published 2026)
Like-named read-outs stand apart in the source and are kept apart here.

Assays:
HT-1080 cells = test: Cytotoxicity (methylene blue cell viability), HT-1080; type: cell-based, human; conditions: Homo sapiens
Method: (§1) Having synthesized the CETZOLE analogs, their cytotoxic activity was evaluated. […] NCI-H522 RV-GFP is the corresponding control with RV-GFP tag, but without SLC7A11 overexpression. […] The cytotoxicity screening was conducted as described previously.
(§2) Cell lines were cultured in a humidified atmosphere containing 10% CO2 in Dulbecco's modified Eagle's medium (Mediatech, Inc) supplemented with 10% fetal bovine serum (Atlanta Biologicals). Cell types used MEFs, HT1080 (human fibrosarcoma cells), NARF2 (osteosarcoma), WI-38 (human embryonic lung fibroblast), MDA MB 231 (breast cancer), HCT-116 (human colon), and NCI-H522 (Non-Small Cell Lung Cancer) cell lines. To determine viability throughout these examples, 5,000 cells were plated per well of a 96-well plate and drugs were added 1 day later. Cells were stained 1 to 3 days later with a saturated solution of methylene blue in 50% ethanol. Plates were rinsed and retained dye was quantified by spectrophotometry. Absorbance was normalized to DMSO and given as 1 or 100% for cell viability. Results are representative of at least two independent experiments. Statistical significance was assessed using the Student's t test. All commercially available chemicals were obtained from Cayman Chemicals unless otherwise noted.

NCI-H522 cells = test: Cytotoxicity (methylene blue cell viability), NCI-H522; type: cell-based, human; conditions: for IC50: Homo sapiens
Method: as §1, §2

MDA-MB-231 cells = test: Cytotoxicity (methylene blue cell viability), MDA-MB-231; type: cell-based; conditions: Homo sapiens
Method: as §1, §2

[1] = tested on: NCI-H522, NCI-H522 GFP-SLC7A11 #8, NCI-H522 RV-GFP, HT-1080, NARF2 and MDA-MB 231 cell lines; test: Cytotoxicity screening across the tested cell lines; type: cell-based; conditions: summary over all tested cell lines; read-out: IC50 values against the tested cell lines
Method: as §1, §2

NCI-H522 RV-GFP cells = test: Cytotoxicity (methylene blue cell viability), NCI-H522 RV-GFP control clone; type: cell-based, human; conditions: Homo sapiens, NCI-H522; Table 1; control clone with RV-GFP tag; read-out: Half maximal inhibitory concentration (IC50), NCI-H522 Rv-GFP
Method: as §1, §2

[2] = tested on: NCI-H522 GFP-SLC7A11 #8 cells; test: Cytotoxicity (methylene blue cell viability), NCI-H522 clone overexpressing GFP-SLC7A11; type: cell-based, human; conditions: Homo sapiens; Table 1; NCI-H522 clone overexpressing GFP-tagged SLC7A11; read-out: Half maximal inhibitory concentration (IC50), NCI-H522 GFP-SCL7A11 #8
Method: as §1, §2

NARF2 cells = test: Cytotoxicity (methylene blue cell viability), NARF2; type: cell-based, human; conditions: Homo sapiens; Table 1; NARF2 osteosarcoma cells; read-out: Half maximal inhibitory concentration (IC50), NARF2
Method: as §1, §2

[3] = tested on: protein bands between 25 kD to 38 kD; test: Competitive binding assay against probe PPd (in-gel fluorescence); conditions: 20 μM concentration; bands 25 kD to 38 kD
WI38 cells = test: Cytotoxicity on normal cell line WI38; type: cell-based, human; conditions: Homo sapiens, WI-38; Table 2; lung tissue fibroblast; read-out: Half maximal inhibitory concentration (IC50), Normal Cell Line WI38
Method: (§3) To determine cytotoxicity at a therapeutically more relevant concentration, cells were treated at a single concentration of […] (FIG. 12).
as §2

[4] = tested on: MEFs (Mouse Embryonic Fibroblasts); test: Cytotoxicity on normal cell line MEFs; type: cell-based; conditions: Fibroblast; Table 2; Mouse Embryonic Fibroblasts; read-out: Half maximal inhibitory concentration (IC50), Normal Cell Line Mefs
Method: as §3, §2

[5] = tested on: NCI-H522 and HT-1080 cancer cell lines, WI38 and MEFs normal cell lines; test: Selective cytotoxicity assay at a single concentration; type: cell-based; set-up: dose or concentration left out as unconfirmed; conditions: NCI-H522, HT-1080, WI38, MEFs
Method: Overall, WI38 cells were the most tolerant to the treatment, whereas MEF cells were partially tolerant and relatively less sensitive than both NCI-H522 and HT-1080 cells. To determine cytotoxicity at a therapeutically more relevant concentration, cells were treated at a single concentration of […] (FIG. 12).
as §2, with “noted. Compound CETZOLE 1 and the analogs were synthesized as highlighted.” for “noted.”

[6] = HT-1080, Table 3, probes and negative controls, read-out: IC50, HT-1080
[7] = NCI-H522, Table 3, probes and negative controls, read-out: IC50, NCI-H522
[8] = MDA-MB-231, Table 3, probes and negative controls, read-out: IC50, MDA-MB-231
[9] = Table 1, HT-1080 fibrosarcoma cell line, read-out: Half maximal inhibitory concentration (IC50), HT-1080
[10] = Table 1, NCI-H522 cancer cell line, read-out: Half maximal inhibitory concentration (IC50), NCI-H522
[11] = Table 1, MDA-MB-231 breast cancer cell line, read-out: Half maximal inhibitory concentration (IC50), MDA-MB-231
[12] = HT-1080, Table 2, read-out: Half maximal inhibitory concentration (IC50), Cancer Cell Line HT1080
[13] = NCI-H522, Table 2, read-out: Half maximal inhibitory concentration (IC50), Cancer Cell Line NCI-H522

Structure (SMILES) | IC50 (HT-1080 cells; [6]) | IC50 (NCI-H522 cells; [7]) | IC50 (MDA-MB-231 cells; [8]) | IC50 (NCI-H522 RV-GFP cells) | IC50 (HT-1080 cells; [9]) | IC50 [2] | IC50 (NARF2 cells) | IC50 (NCI-H522 cells; [10]) | IC50 (MDA-MB-231 cells; [11]) | also measured
C#Cc1nc(C2=C(C)C(NC(=O)CCCC[C@@H]3SC[C@@H]4NC(=O)N[C@@H]43)CC2)cs1 (stereo partly drawn) [PPb, N-(3-(2-Ethynylthiazol-4-yl)-2-methylcyclopent-2-en-1-yl)-5-((3aS,4S,6aR)-2-oxohexahydro-1H-thieno[3,4-d]imidazol-4-yl)pentanamide] | 7.91 ± 1.9 µM | 17.9 ± 3.98 µM | > 20 µM | – | – | – | – | – | – | IC50 (NCI-H522 cells; NCI-H522, unit inferred, read-out: IC50 on NCI-H522 cell line): 17.9 ± 3.98 µM; activity relative to CETZOLE 1 (NCI-H522 cells; NCI-H522 cell line): five-fold less active
C#CCO/N=C1\CC(c2csc(Br)n2)=C(C)C1O (stereo not drawn) [NPd, 4-(2-Bromothiazol-4-yl)-2-hydroxy-3-methylcyclopent-3-en-1-one O-prop-2-yn-1-yl oxime] | > 20 µM | > 20 µM | > 20 µM | – | – | – | – | – | – | –
C#Cc1nc(C2=C(C)C(=O)/C(=N/OC(C)=O)C2)cs1 [compound 18] | – | – | – | > 20 µM | > 20 µM | > 20 µM | > 20 µM | 11 ± 1.53 µM | 18.5 ± 1.7 µM | IC50 [1]: > 20 µM
O=C(O)c1cc(/N=N/c2ccc(S(=O)(=O)Nc3ccccn3)cc2)ccc1O [sulfasalazine] | – | – | – | – | – | – | – | – | – | competition of PPd-labelled protein bands by known ferroptosis inducers [3]: did not show any significant competition
CCN(CC)c1ccc2cc(C(=O)NC3CCC(c4csc(Br)n4)=C3C)c(=O)oc2c1 (stereo not drawn) [NPa, N-(3-(2-Bromothiazol-4-yl)-2-methylcyclopent-2-en-1-yl)-7-(diethylamino)-2-oxo-2H-chromene-3-carboxamide] | > 20 µM | > 20 µM | > 20 µM | – | – | – | – | – | – | –
C#Cc1nc(C2=C(C)C(OC(=O)CC)/C(=N/OC(=O)CC)C2)cs1 (stereo not drawn) [compound 20b, (E)-3-(2-Ethynylthiazol-4-yl)-2-methyl-5-((propionyloxy)imino)cyclopent-2-en-1-yl propionate] | – | – | – | 0.59 ± 0.22 µM | 0.15 ± 0.02 µM | 2.06 ± 0.54 µM | 13.4 ± 3.3 µM | 0.12 ± 0.06 µM | 0.18 ± 0.03 µM | IC50 (WI38 cells): 2.52 ± 0.92 µM; IC50 [4]: 0.28 ± 0.04 µM; IC50 (HT-1080 cells; [12]): 0.15 ± 0.02 µM; cell death at a single concentration [5]: killed only the cancer cell lines NCI-H522 and HT-1080; IC50 (NCI-H522 cells; [13]): 0.12 ± 0.06 µM
C#Cc1nc(C2=C(C)C(OC(=O)CCCCCCC)/C(=N/OC(=O)CCCCCCC)C2)cs1 (stereo not drawn) [compound 20e, (E)-3-(2-Ethynylthiazol-4-yl)-2-methyl-5-((octanoyloxy)imino)cyclopent-2-en-1-yl octanoate] | – | – | – | > 20 µM | > 20 µM | > 20 µM | > 20 µM | > 20 µM | 19.1 ± 2.8 µM | IC50 [1]: > 20 µM
CC1=C(c2csc(Br)n2)CCC1NC(=O)CCCC[C@@H]1SC[C@@H]2NC(=O)N[C@@H]21 (stereo partly drawn) [NPb, N-(3-(2-Bromothiazol-4-yl)-2-methylcyclopent-2-en-1-yl)-5-((3aS,4S,6aR)-2-oxohexahydro-1H-thieno[3,4-d]imidazol-4-yl)pentanamide] | > 20 µM | > 20 µM | > 20 µM | – | – | – | – | – | – | –
C#Cc1nc(C2=C(C)C(O)/C(=N/O)C2)cs1 (stereo not drawn) [compound 19, (E)-4-(2-Ethynylthiazol-4-yl)-2-hydroxy-3-methylcyclopent-3-en-1-one oxime] | – | – | – | 5.55 ± 0.01 µM | 5.77 ± 0.67 µM | > 20 µM | > 20 µM | 4.68 ± 1.03 µM | 6.57 ± 0.5 µM | –
C#Cc1nc(C2=C(C)C(NC(=O)c3cc4ccc(N(CC)CC)cc4oc3=O)CC2)cs1 (stereo not drawn) [PPa, 7-(Diethylamino)-N-(3-(2-ethynylthiazol-4-yl)-2-methylcyclopent-2-en-1-yl)-2-oxo-2H-chromene-3-carboxamide] | 4.58 ± 0.87 µM | 4.56 ± 1.43 µM | 1.2 ± 1.03 µM | – | – | – | – | – | – | IC50 (NCI-H522 cells; cell line not given, value matches NCI-H522 of Table 3, read-out: IC50 (moderate cytotoxicity of PPa)): 4.56 ± 1.43 µM
C#CCCC(=O)Nc1ccc(C(=O)c2ccc(NC(=O)CO/N=C3\CC(c4csc(Br)n4)=C(C)C3O)cc2)cc1 (stereo not drawn) [NPe, (E)-N-(4-(4-(2-(((4-(2-Bromothiazol-4-yl)-2-hydroxy-3-methylcyclopent-3-en-1-ylidene)amino)oxy)acetamido)benzoyl)phenyl)pent-4-ynamide] | > 20 µM | > 20 µM | > 20 µM | – | – | – | – | – | – | –
C#Cc1nc(C2=C(C)C(OC(=O)CCC)/C(=N/OC(=O)CCC)C2)cs1 (stereo not drawn) [compound 20c, (E)-5-((Butyryloxy)imino)-3-(2-ethynylthiazol-4-yl)-2-methylcyclopent-2-en-1-yl butyrate] | – | – | – | 0.28 ± 0.13 µM | 0.19 ± 0.09 µM | 1.93 ± 0.8 µM | 5.95 ± 1.8 µM | 0.13 ± 0.09 µM | 0.83 ± 0.15 µM | IC50 (WI38 cells): 1.19 ± 0.3 µM; IC50 [4]: 0.79 ± 0.04 µM; IC50 (HT-1080 cells; [12]): 0.19 ± 0.09 µM; cell death at a single concentration [5]: killed only the cancer cell lines NCI-H522 and HT-1080; IC50 (NCI-H522 cells; [13]): 0.13 ± 0.09 µM
Cc1onc(C(=O)N2CCN(C(c3ccc(Cl)cc3)c3ccc(Cl)cc3)CC2)c1[N+](=O)[O-] [ML210] | – | – | – | – | – | – | – | – | – | competition of PPd-labelled protein bands by known ferroptosis inducers [3]: compete out the same protein bands
CC1=C(c2csc(Br)n2)CCC1O (stereo not drawn) [compound 13, 3-(2-Bromothiazol-4-yl)-2-methylcyclopent-2-en-1-ol] | > 20 µM | > 20 µM | > 20 µM | – | – | – | – | – | – | –
C#Cc1nc(C2=C(C)C(=O)/C(=N/O)C2)cs1 [compound 14, (E)-3-(2-Ethynylthiazol-4-yl)-5-(hydroxyimino)-2-methylcyclopent-2-en-1-one] | – | – | – | > 20 µM | 5.29 ± 2.6 µM | > 20 µM | > 20 µM | > 20 µM | 8.05 ± 0.63 µM | IC50 [1]: > 20 µM
C#Cc1nc(C2=C(C)C(O)/C(=N\OCc3ccccc3)C2)cs1 (stereo not drawn) [compound 21, (Z)-4-(2-Ethynylthiazol-4-yl)-2-hydroxy-3-methylcyclopent-3-en-1-one O-benzyl oxime] | – | – | – | 3.02 ± 1.7 µM | 0.93 ± 0.12 µM | 2.17 ± 1.5 µM | > 20 µM | 1.18 ± 0.8 µM | 13.4 ± 5.3 µM | –
